This passage reports EC50 results from patent US10150760B2, “Compounds for use in preparing heterocyclic triazole agonists of the APJ receptor” (AMGEN INC., priority 2016, dated 2018).

The term EC50 denotes the concentration at which the effect is half-maximal.

Chain of human APJ receptor (P35414 whole entry): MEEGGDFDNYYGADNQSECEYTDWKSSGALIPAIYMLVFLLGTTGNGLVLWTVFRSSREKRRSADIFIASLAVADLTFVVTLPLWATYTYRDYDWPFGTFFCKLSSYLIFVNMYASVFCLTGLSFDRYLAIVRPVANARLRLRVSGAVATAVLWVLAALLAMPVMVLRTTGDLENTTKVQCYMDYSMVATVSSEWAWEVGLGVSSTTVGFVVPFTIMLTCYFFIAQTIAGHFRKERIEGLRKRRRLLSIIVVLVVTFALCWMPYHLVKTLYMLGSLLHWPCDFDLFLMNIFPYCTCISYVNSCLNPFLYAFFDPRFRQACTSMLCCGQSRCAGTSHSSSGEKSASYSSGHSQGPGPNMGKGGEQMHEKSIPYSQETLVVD

The target of the assay is human APJ receptor (Homo sapiens (Human), UniProt P35414). In words: [35S]GTPγS binding assay on membranes from CHO cells stably expressing human APJ receptor. The class given is biochemical. To be noted: read-out: Activity hAPJ SPA EC50 IP. On the procedure:
The human APJ receptor was cloned by polymerase chain reaction and the gene encoding the receptor was subcloned in pFLAG-CMV™-3 expression vector (Sigma, Saint Louis, Mo. USA) in-house at Amgen. A GTPγS binding assay was performed on membranes prepared from CHO cells stably expressing human APJ receptor. The optimum experimental conditions for the concentrations of GDP, MgCl2, and NaCl in the assay buffer were initially determined. The assay was performed in assay buffer [20 mM HEPES, pH 7.5, 5 mM MgCl2, and 0.1% (w/v) BSA with 200 mM NaCl, 3 μM GDP] and membranes expressing human APJ receptor/well along with WGA PS beads. The reaction was initiated by addition of 0.2 nM [^35S]GTPγS (Perkin Elmer Life and Analytical Sciences, Waltham USA) in the absence or presence of various ligands and incubated at RT for 90 min. Nonspecific binding was determined in the presence of 100 μM GTPγS and was always less than 0.2% of total binding. All the results presented are means of several independent experiments and analyzed by non-linear regression methods using commercially available program Prism (GraphPad, San Diego, Calif.) to obtain EC50 detailed in Table 38.
For orientation: Binding of GTPγS marks nucleotide exchange on a G protein.
As to `COc1cccc(OC)c1-n1c(NS(=O)(=O)[C@@H](C)[C@H](OC)c2ncc(Cl)cn2)nnc1[C@H]1CCCO1` (single isomer, unassigned) [Example 52.0, (1R,2S)-1-(5-chloropyrimidin-2-yl)-N-(4-(2,6-dimethoxyphenyl)-5-((R)-tetrahydrofuran-2-yl)-4H-1,2,4-triazol-3-yl)-1-methoxypropane-2-sulfonamide or (1R,2S)-1-(5-chloropyrimidin-2-yl)-N-(4-(2,6-dimethoxyphenyl)-5-((S)-tetrahydrofuran-2-yl)-4H-1,2,4-triazol-3-yl)-1-methoxypropane-2-sulfonamide], the EC50 is 20 nM.
On to `COc1cccc(OC)c1-n1c(NS(=O)(=O)[C@@H](C)[C@H](C)c2ncc(C)cn2)nnc1[C@H]1CCOC1` (single isomer, unassigned) [Example 54.0, (2S,3R)-N-(4-(2,6-dimethoxyphenyl)-5-((R)-tetrahydrofuran-3-yl)-4H-1,2,4-triazol-3-yl)-3-(5-methylpyrimidin-2-yl)butane-2-sulfonamide or (2S,3R)-N-(4-(2,6-dimethoxyphenyl)-5-((S)-tetrahydrofuran-3-yl)-4H-1,2,4-triazol-3-yl)-3-(5-methylpyrimidin-2-yl)butane-2-sulfonamide], for which the EC50 is 37 nM.
Turning to `COc1cccc(OC)c1-n1c(NS(=O)(=O)[C@@H](C)[C@H](C)c2ncc(C)cn2)nnc1[C@H]1CCOC1` (single isomer, unassigned) [Example 55.0, (2S,3R)-N-(4-(2,6-dimethoxyphenyl)-5-((R)-tetrahydrofuran-3-yl)-4H-1,2,4-triazol-3-yl)-3-(5-methylpyrimidin-2-yl)butane-2-sulfonamide or (2S,3R)-N-(4-(2,6-dimethoxyphenyl)-5-((S)-tetrahydrofuran-3-yl)-4H-1,2,4-triazol-3-yl)-3-(5-methylpyrimidin-2-yl)butane-2-sulfonamide], the 50% effective concentration (EC50) came out at 66 nM.
For the compound `COc1cccc(OC)c1-n1c(NS(=O)(=O)[C@@H](C)[C@H](C)c2ncc(C)cn2)nnc1[C@H]1CCCOC1` (single isomer, unassigned) [Example 58.0, (2S,3R)-N-(4-(2,6-dimethoxyphenyl)-5-((R)-tetrahydro-2H-pyran-3-yl)-4H-1,2,4-triazol-3-yl)-3-(5-methylpyrimidin-2-yl)butane-2-sulfonamide or (2S,3R)-N-(4-(2,6-dimethoxyphenyl)-5-((S)-tetrahydro-2H-pyran-3-yl)-4H-1,2,4-triazol-3-yl)-3-(5-methylpyrimidin-2-yl)butane-2-sulfonamide], the EC50 amounted to 120 nM.
Take `COc1cccc(OC)c1-n1c(NS(=O)(=O)[C@@H](C)[C@H](C)c2ncc(C)cn2)nnc1[C@H]1CCCOC1` (single isomer, unassigned) [Example 59.0, (2S,3R)-N-(4-(2,6-dimethoxyphenyl)-5-((R)-tetrahydro-2H-pyran-3-yl)-4H-1,2,4-triazol-3-yl)-3-(5-methylpyrimidin-2-yl)butane-2-sulfonamide or (2S,3R)-N-(4-(2,6-dimethoxyphenyl)-5-((S)-tetrahydro-2H-pyran-3-yl)-4H-1,2,4-triazol-3-yl)-3-(5-methylpyrimidin-2-yl)butane-2-sulfonamide]: the EC50 was found to be 16 nM.
Regarding `COc1cccc(OC)c1-n1c(NS(=O)(=O)[C@@H](C)[C@H](C)c2ncc(Cl)cn2)nnc1[C@H]1CCCOC1` (single isomer, unassigned) [Example 62.0, (2S,3R)-3-(5-chloropyrimidin-2-yl)-N-(4-(2,6-dimethoxyphenyl)-5-((R)-tetrahydro-2H-pyran-3-yl)-4H-1,2,4-triazol-3-yl)butane-2-sulfonamide or (2S,3R)-3-(5-chloropyrimidin-2-yl)-N-(4-(2,6-dimethoxyphenyl)-5-((S)-tetrahydro-2H-pyran-3-yl)-4H-1,2,4-triazol-3-yl)butane-2-sulfonamide], the EC50 turned out to be 26 nM.
With `COc1cccc(OC)c1-n1c(NS(=O)(=O)[C@@H](C)[C@H](OC)c2ncc(Cl)cn2)nnc1[C@H]1CCCOC1` (single isomer, unassigned) [Example 64.0, (1R,2S)-1-(5-chloropyrimidin-2-yl)-N-(4-(2,6-dimethoxyphenyl)-5-((R)-tetrahydro-2H-pyran-3-yl)-4H-1,2,4-triazol-3-yl)-1-methoxypropane-2-sulfonamide or (1R,2S)-1-(5-chloropyrimidin-2-yl)-N-(4-(2,6-dimethoxyphenyl)-5-((S)-tetrahydro-2H-pyran-3-yl)-4H-1,2,4-triazol-3-yl)-1-methoxypropane-2-sulfonamide], the EC50 was 29 nM.
For the compound `COc1cccc(OC)c1-n1c(NS(=O)(=O)[C@@H](C)[C@@H](OC(C)C)c2cnc(C)cn2)nnc1[C@H]1CCCO1` (single isomer, unassigned) [Example 66.0], the EC50 was found to be 6.9 nM.
Regarding `COc1cccc(OC)c1-n1c(NS(=O)(=O)[C@@H](C)[C@@H](OC(C)C)c2cnc(C)cn2)nnc1[C@H]1CCCO1` (single isomer, unassigned) [Example 67.0], the EC50 stood at 180 nM.
Turning to `COc1cccc(OC)c1-n1c(NS(=O)(=O)[C@@H](C)[C@H](C)c2ncc(Cl)cn2)nnc1[C@H]1OCC[C@H]1C` (single isomer, unassigned) [Example 68.0, (2S,3R)-3-(5-chloropyrimidin-2-yl)-N-(4-(2,6-dimethoxyphenyl)-5-((2S,3R)-3-methyltetrahydrofuran-2-yl)-4H-1,2,4-triazol-3-yl)butane-2-sulfonamide or (2S,3R)-3-(5-chloropyrimidin-2-yl)-N-(4-(2,6-dimethoxyphenyl)-5-((2R,3S)-3-methyltetrahydrofuran-2-yl)-4H-1,2,4-triazol-3-yl)butane-2-sulfonamide], the EC50 came to 14 nM.
Under `COc1ncnc(OC)c1-n1c(NS(=O)(=O)[C@@H](C)[C@H](C)c2ncc(C)cn2)nnc1[C@H]1CCCO1` (single isomer, unassigned) [Example 69.0, (2S,3R)-N-(4-(4,6-dimethoxypyrimidin-5-yl)-5-((S)-tetrahydrofuran-2-yl)-4H-1,2,4-triazol-3-yl)-3-(5-methylpyrimidin-2-yl)butane-2-sulfonamide or (2S,3R)-N-(4-(4,6-dimethoxypyrimidin-5-yl)-5-((R)-tetrahydrofuran-2-yl)-4H-1,2,4-triazol-3-yl)-3-(5-methylpyrimidin-2-yl)butane-2-sulfonamide] stands 82 nM; under `COc1ncnc(OC)c1-n1c(NS(=O)(=O)[C@@H](C)[C@H](C)c2ncc(C)cn2)nnc1[C@H]1CCCO1` (single isomer, unassigned) [Example 70.0, (2S,3R)-N-(4-(4,6-dimethoxypyrimidin-5-yl)-5-((S)-tetrahydrofuran-2-yl)-4H-1,2,4-triazol-3-yl)-3-(5-methylpyrimidin-2-yl)butane-2-sulfonamide or (2S,3R)-N-(4-(4,6-dimethoxypyrimidin-5-yl)-5-((R)-tetrahydrofuran-2-yl)-4H-1,2,4-triazol-3-yl)-3-(5-methylpyrimidin-2-yl)butane-2-sulfonamide], 15 nM.
